In ChEMBL document CHEMBL3286271, “Synthesis and cytotoxic effect on cancer cell lines and macrophages of novel progesterone derivatives having an ester or a carbamate function at C-3 and C-17” (Eur J Med Chem, 2014):
Active and inactive are the calls of the source. No cut-off for these calls is given here.

Tests used:
MCF7 = experiment: Cytotoxicity against human MCF7 cells assessed as growth inhibition at 50 uM after 48 hrs by SRB method; type: functional; details: for inhibition of growth at 50 µM: MCF7, 48 h, read-out: GI
PC-3 = experiment: Cytotoxicity against human PC3 cells assessed as growth inhibition at 50 uM after 48 hrs by SRB method; type: functional; details: PC-3, 48 h, read-out: GI
[1] = (§1) Cytotoxicity against human HCT15 cells assessed as growth inhibition at 50 uM after 48 hrs by SRB method; type: functional; details: HCT-15, 48 h, read-out: GI
[2] = Cytotoxicity against mouse J774 cells assessed as growth inhibition at 50 uM after 48 hrs by SRB method; type: cell-based; details: read-out: GI
HCT-15 = experiment: as §1; type: functional

SMILES	inhibition of growth at 50 µM (MCF7)	inhibition of growth at 50 µM (PC-3)	inhibition of growth at 50 µM [1]	inhibition at 48 h, 50 µM [2]	growth inhibition (GI) (MCF7)	growth inhibition (GI) (HCT-15)
CC(=O)C1=CC[C@H]2[C@@H]3CC(=O)C4=C[C@@H](OC(=O)Nc5ccc(I)cc5)CC[C@]4(C)[C@H]3CC[C@]12C	33.1%	42.8%	43.2%	70.7%	–	–
CC(=O)[C@@]1(OC(=O)c2ccccc2)CC[C@H]2[C@@H]3C=CC4=CC(=O)CC[C@]4(C)[C@H]3CC[C@@]21C	26.8%	42.5%	50.8%	100%	–	–
CC(=O)[C@@]1(OC(=O)Nc2ccc(I)cc2)CC[C@H]2[C@@H]3C=CC4=CC(=O)CC[C@]4(C)[C@H]3CC[C@@]21C	–	17.8%	–	21.7%	inactive	inactive
CC(=O)C1=CC[C@H]2[C@@H]3CC(=O)C4=C[C@@H](OC(=O)Nc5ccccc5)CC[C@]4(C)[C@H]3CC[C@]12C	34.7%	4.5%	41.4%	73.8%	–	–
CC(=O)[C@@]1(OC(=O)c2ccc(I)cc2)CC[C@H]2[C@@H]3C=CC4=CC(=O)CC[C@]4(C)[C@H]3CC[C@@]21C	22.6%	30.8%	27.5%	74.3%	–	–
CC(=O)C1=CC[C@H]2[C@@H]3CC(=O)C4=C[C@@H](OC(=O)c5ccc(Br)cc5)CC[C@]4(C)[C@H]3CC[C@]12C	86.2%	51.9%	55.9%	60.9%	–	–
CC(=O)[C@@]1(OC(=O)c2ccc(Cl)cc2)CC[C@H]2[C@@H]3C=CC4=CC(=O)CC[C@]4(C)[C@H]3CC[C@@]21C	39.8%	46.1%	39.3%	73.6%	–	–
CC(=O)N1CCN(c2ccc(OCC3COC(Cn4ccnc4)(c4ccc(Cl)cc4Cl)O3)cc2)CC1 (configuration not stated) [KETOCONAZOLE]	95.2%	88.5%	90.6%	54%	–	–
CC(=O)C1=CC[C@H]2[C@@H]3CC(=O)C4=C[C@@H](OC(=O)c5ccc(F)cc5)CC[C@]4(C)[C@H]3CC[C@]12C	20.8%	8.3%	22.8%	50%	–	–
CC(=O)C1=CC[C@H]2[C@@H]3CC(=O)C4=C[C@@H](OC(=O)Nc5ccc(Br)cc5)CC[C@]4(C)[C@H]3CC[C@]12C	14%	26.9%	30%	80.5%	–	–
CC(=O)C1=CC[C@H]2[C@@H]3CC(=O)C4=C[C@@H](OC(=O)Nc5ccc(F)cc5)CC[C@]4(C)[C@H]3CC[C@]12C	34.6%	33%	60.1%	78.3%	–	–
CC(=O)C1=CC[C@H]2[C@@H]3CC(=O)C4=C[C@@H](O)CC[C@]4(C)[C@H]3CC[C@]12C	63.5%	70.6%	67.7%	98.9%	–	–
CC(=O)[C@@]1(OC(=O)c2ccc(Br)cc2)CC[C@H]2[C@@H]3C=CC4=CC(=O)CC[C@]4(C)[C@H]3CC[C@@]21C	44.4%	84.7%	53.9%	57%	–	–
CC(=O)[C@@]1(OC(=O)Nc2ccc(F)cc2)CC[C@H]2[C@@H]3C=CC4=CC(=O)CC[C@]4(C)[C@H]3CC[C@@]21C	20%	33.4%	–	43.4%	–	inactive
CC(=O)[C@@]1(OC(=O)Nc2ccc(Cl)cc2)CC[C@H]2[C@@H]3C=CC4=CC(=O)CC[C@]4(C)[C@H]3CC[C@@]21C	11.2%	15.8%	–	36.9%	–	inactive
CC(=O)[C@@]1(O)CC[C@H]2[C@@H]3C=CC4=CC(=O)CC[C@]4(C)[C@H]3CC[C@@]21C	27.8%	39.6%	25%	58.5%	–	–
CC(=O)C1=CC[C@H]2[C@@H]3CC(=O)C4=C[C@@H](OC(=O)c5ccc(Cl)cc5)CC[C@]4(C)[C@H]3CC[C@]12C	100%	87.3%	88.2%	38.8%	–	–
CC(=O)C1=CC[C@H]2[C@@H]3CC(=O)C4=C[C@@H](OC(=O)c5ccc(I)cc5)CC[C@]4(C)[C@H]3CC[C@]12C	100%	64.1%	67.3%	61.1%	–	–
CC(=O)[C@@]1(OC(=O)Nc2ccc(Br)cc2)CC[C@H]2[C@@H]3C=CC4=CC(=O)CC[C@]4(C)[C@H]3CC[C@@]21C	13.1%	26.4%	–	32%	–	inactive
CC(=O)C1=CC[C@H]2[C@@H]3CC(=O)C4=C[C@@H](OC(=O)Nc5ccc(Cl)cc5)CC[C@]4(C)[C@H]3CC[C@]12C	13.7%	63.4%	65.3%	92.4%	–	–
CC(=O)[C@@]1(OC(=O)Nc2ccccc2)CC[C@H]2[C@@H]3C=CC4=CC(=O)CC[C@]4(C)[C@H]3CC[C@@]21C	51.3%	96.6%	45.3%	48.2%	–	–
CC(=O)[C@@]1(OC(=O)c2ccc(F)cc2)CC[C@H]2[C@@H]3C=CC4=CC(=O)CC[C@]4(C)[C@H]3CC[C@@]21C	29.2%	30.9%	35.6%	100%	–	–
CC(=O)C1=CC[C@H]2[C@@H]3CC(=O)C4=C[C@@H](OC(=O)c5ccccc5)CC[C@]4(C)[C@H]3CC[C@]12C	32.7%	2.9%	48.7%	89.3%	–	–
